Results from US11345716B2, “Nitrogen-containing condensed ring compounds having dopamine D3 antagonistic effect” (Shionogi & Co., Ltd., priority 2016, dated 2022).

Legend:
[1] = target: human recombinant dopamine D2 receptor (Homo sapiens (Human), UniProt P14416); experiment: Test of binding inhibition for the human dopamine D2 receptor (SPA, [3H]-Metylspiperone); conditions: Jump-In HEK cell membranes, 1.2 nM [3H]-Metylspiperone, 120 min at 25° C.; read-out: hD2_Ki
Protocol: Test Example 1: Test of Binding Inhibition for the Human Dopamine D2 Receptor
Cell membranes: Jump-In HEK cell membranes expressing human recombinant dopamine D2 receptor (2 μg/well)
Buffer solution: 50 mM Tris-HCl (35409-45, Nacalai Tesque) (pH 7.4) containing 120 mM NaCl (31320-05, Nacalai Tesque), 1 mM MgCl2.6H2O (20909-55, Nacalai Tesque). 5 mM KCl (28514-75, Nacalai Tesque) and 2 mM CaCl2 (067-31, Nacalai Chemical, Ltd)
Radioligand: (final concentration) 1.2 nM [^3H]-Metylspiperone ([^3H—N-methyl-]-Metylspiperone, NET-856, 83.8 Ci/mmol, PerkinElmer)
(§1) Non-specific ligand: (final concentration) 10 μM Butaclamol [(+)-Butaclamol Hydrochloride, D033, Sigma]
(§2) SPA beads: SPA beads [WGA PVT SPA Scintillation Beads, RPNQ0001 (500 mg), RPNQ0060 (2 g), PerkinElmer] (0.2 mg/well)
(§3) Incubation time and temperature: 120 min at 25° C.
(§4) Butaclamol or the compounds of the present invention were weighed and DMSO was added to make a 10 mM solution. This solution was diluted to each concentration.
[^3H]-Metylspiperone was weighed and the buffer solution was added to make a 3.6 nM solution.
SPA beads were weighed and stirred in water to moke a 50 mg/mL solution. Using this solution, a mixed solution with the cell membranes was prepared.
225 nL of the solutions of the non-specific ligand or the compounds of the present invention at each concentration (in case of vehicle, final concentration 0.3% DMSO) were added in each well of a 384-well white/clear bottom microplate (3706, Corning). Jump-In HEK Cell membranes (final reaction amount: 2 μg protein/well), SPA beads (final reaction amount: 0.2 mg/well) and the buffer were mixed and the mixed solution was left still for more than or equal to 1 h at 4° C. Then, 50 μL of the mixture was added to each well of the plate. In addition, 25 μL of 3.6 nM [^3H]-Metylspiperone (final concentration: 1.2 nM) was added to each well. The plate was sealed by putting TopSeal-A 96/384 well (6050185, PerkinElmer) on the top of the plate, mixed using stirring deaerator (Welltornado, FK-62, Sakaki) and incubated for 120 min at 25° C. After incubation, the radioactivity of [^3H]-Metylspiperone which was binded to D2 receptor was determined by liquid scintillation counter (1450 Microbeta, PerkinElmer) in each well. Non-specific binding was calculated based on the radioactivity of [^3H]-Metylspiperone in the presence of 10 μM non-labeled Butaclamol. The total binding was calculated using the radioactivity of [^3H]-Metylspiperone in the absence of the compounds of the present invention (Vehicle). The Ki values were calculated from dose-response curves.
Binding activities of the compounds of the present invention were calculated from the following Binding Inhibition Rate (%): Inhibition Rate (%)=[1−(c−a)(b−a)]×100(%) • a: Average cpm of non-specific binding • b: Average cpm of total binding • c: Cpm in the presence of each test compound

[2] = target: human recombinant dopamine D3 receptor (Homo sapiens (Human), UniProt P35462); experiment: Test of binding inhibition for the human dopamine D3 receptor (SPA, [3H]-Metylspiperone); conditions: Jump-In HEK cell membranes, 2 nM [3H]-Metylspiperone, 120 min at 25° C.; read-out: hD3_Ki
Chain of human recombinant dopamine D3 receptor (P35462 whole entry): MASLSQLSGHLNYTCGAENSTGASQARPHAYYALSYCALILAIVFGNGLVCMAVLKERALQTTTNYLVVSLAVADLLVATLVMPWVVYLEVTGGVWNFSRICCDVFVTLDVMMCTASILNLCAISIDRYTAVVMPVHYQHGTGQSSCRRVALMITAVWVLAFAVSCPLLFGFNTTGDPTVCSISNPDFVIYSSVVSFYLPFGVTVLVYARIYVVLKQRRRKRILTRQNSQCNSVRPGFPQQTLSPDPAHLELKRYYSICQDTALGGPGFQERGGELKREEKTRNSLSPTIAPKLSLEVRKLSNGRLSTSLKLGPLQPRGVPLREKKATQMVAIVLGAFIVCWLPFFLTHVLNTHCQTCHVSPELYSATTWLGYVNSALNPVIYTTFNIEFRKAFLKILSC
Protocol: Cell membranes: Jump-In HEK cell membranes expressing human recombinant dopamine D3 receptor (4 μg/well)
as §1, §2, §3, §4
[^3H]-Metylspiperone was weighed and the buffer solution was added to make a 6 nM solution.
SPA beads were weighed and stirred in water to make a 50 mg/mL solution. Using this solution, a mixed solution with the cell membranes was prepared.
Jump-In HEK Cell membranes (final reaction amount: 4 μg/well), SPA beads (final reaction amount: 0.2 mg/well) and Tris-HCl buffer were mixed and the mixed solution was left still for more than 60 min at 4° C. Then, 50 μL of the mixture was added to each well of the plate. In addition, 25 μL of 6 nM [^3H]-Metylspiperone (final concentration: 2 nM) was added to each well. […] Non-specific binding was calculated based on the radioactivity of [^3II]-Metylspiperone in the presence of 10 μM non-labeled Butaclamol. The total binding was calculated based on the radioactivity of [^3H]-Metylspiperone in the absence of the compounds of the present invention (Vehicle). The Ki values were calculated from dose-response curves.
Binding activities of the compounds of the present invention were calculated from the following Binding Inhibition Rate (%): Inhibition Rate (%)=[1−(c−a)(b−a)]*100(%) • a: Average cpm of non-specific binding • b: Average cpm of total binding • c: Cpm in the presence of each test compound

impulsivity in rat = experiment: Effect of suppressing impulsivity in rat (T-maze delayed large reward, i.p.); format: in vivo; conditions: 3 mg/kg, total 50 trials of 5 days, versus vehicle control group
Excerpt: Test Example 3-1: Effect of Suppressing Impulsivity in Rat
Male Crl: WI rats were obtained at post-natal day 14 and weaning was occurred at post-natal day 21. Starting from then, the rats were housed 2-3 per cage and food-restricted (Day 1). The feeding amount was 5 g/day at post-natal day 21-28 (Day 1-8), 8.5 g/day at post-natal day 29-32 (Day 9-12), and 10 g/day at post-natal day 33-36 (Day 13-16), preventing their body weight from being 60% or less of the weight of the free feeding rats.
4 days after the beginning of the food restriction (Day 5), pellets were put on goal boxes located in the left-side and the right-side of T-maze. Then, the rats were allowed to freely explore the T-maze-box for 5 min to get habituated to the T-maze box and learn that the pellets were put on the goal boxes located in the left-side and the right-side. For 4 consecutive days from the next day (Day 6-9), one pellet (20 mg×1) was put in one side of the goal box as a small reward, and 5 pellets (20 mg×5) were put in the other side of the goal box as a large reward, and the rats were trained to learn their positions. Each rat underwent 10-trial per day trainings. […] The evaluations of the drug efficacy were started on Day 12. […]

Chain of human recombinant dopamine D2 receptor (P14416 whole entry): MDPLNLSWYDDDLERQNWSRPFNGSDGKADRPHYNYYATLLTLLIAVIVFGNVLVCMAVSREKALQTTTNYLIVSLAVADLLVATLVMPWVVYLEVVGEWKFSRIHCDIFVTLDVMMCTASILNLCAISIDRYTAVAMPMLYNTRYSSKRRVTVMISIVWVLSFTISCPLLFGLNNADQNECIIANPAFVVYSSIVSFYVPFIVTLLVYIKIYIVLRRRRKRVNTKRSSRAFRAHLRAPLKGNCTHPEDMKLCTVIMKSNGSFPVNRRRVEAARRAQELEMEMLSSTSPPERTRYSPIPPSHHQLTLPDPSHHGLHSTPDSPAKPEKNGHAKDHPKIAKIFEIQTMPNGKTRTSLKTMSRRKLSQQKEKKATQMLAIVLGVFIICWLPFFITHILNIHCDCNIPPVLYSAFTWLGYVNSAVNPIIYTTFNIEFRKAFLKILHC

Row | Ki [1] [nM] | Ki [2] [nM] | Compound | number of choices for the large reward (impulsivity in rat)
1 | > 1700 | 0.014 | Cc1cn2c(C(=O)N[C@H]3CC[C@H](CCN4CCc5ccc(OCC(F)F)nc5CC4)CC3)cccc2n1 [II-057] | 
2 | > 1700 | 1.1 | Cc1ncc(CC(=O)N[C@H]2CC[C@H](CCN3CCc4cnc(OCC(F)F)nc4CC3)CC2)s1 [II-062] | 
3 | 1600 | 0.12 | Cc1cc(CC(=O)N[C@H]2CC[C@H](CCN3CCc4sc(N5CC(F)(F)C5)nc4C3)CC2)on1 [Compound I-098] | 
4 | 480 | 0.25 | Cc1ncc(CC(=O)N[C@H]2CC[C@H](CCN3CCc4cc(C)c(OCC(F)F)nc4CC3)CC2)s1 [III-008] | 
5 | 290 | 0.058 | COc1cc(CCC(=O)N[C@H]2CC[C@H](CCN3CCc4ccc(OCC(F)F)nc4CC3)CC2)on1 [II-041] | 
6 |  |  | O=C(N[C@H]1CC[C@H](CCN2CCc3sc(OCC(F)F)nc3C2)CC1)c1cccc2ncccc12 [Compound I-085] | significantly increased
